Experiments:
PPARγ = molecular target: T1, PPARγ (Homo sapiens, UniProt P37231); assay: SPR-based Biacore binding assay on immobilized PPARγ; details: injected 0.5 to 10 µM
T1 sequence (P37231 1-505): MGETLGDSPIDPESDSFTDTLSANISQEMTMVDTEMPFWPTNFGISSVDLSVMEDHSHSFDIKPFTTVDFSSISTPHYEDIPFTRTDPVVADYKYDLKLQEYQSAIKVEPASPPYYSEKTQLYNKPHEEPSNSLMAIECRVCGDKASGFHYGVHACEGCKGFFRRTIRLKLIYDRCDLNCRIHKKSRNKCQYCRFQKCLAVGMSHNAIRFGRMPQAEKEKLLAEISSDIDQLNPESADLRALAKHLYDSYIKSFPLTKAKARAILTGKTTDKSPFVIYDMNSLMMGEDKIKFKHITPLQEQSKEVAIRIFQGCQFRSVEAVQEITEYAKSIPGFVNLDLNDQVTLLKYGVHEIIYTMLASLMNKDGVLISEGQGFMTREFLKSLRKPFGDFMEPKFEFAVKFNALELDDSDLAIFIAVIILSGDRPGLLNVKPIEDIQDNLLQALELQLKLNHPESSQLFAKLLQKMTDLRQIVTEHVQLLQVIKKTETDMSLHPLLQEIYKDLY
Procedure: […]. SPR analyses were carried out on a BIACORE 3000 instrument (GE-Healthcare). A PPARγ, surface was generated using a research-grade CM5 sensor chips (GE Healthcare). The protein (100 µg/ml in 10 mM CH3COONa, pH 5.0) was immobilized using a standard amine-coupling protocol, to obtain densities of 4 kRU. Testing compounds were dissolved in 100% DMSO to obtain 10 mM solutions, and then diluted in PBS containing variable amounts of DMSO, achieving a final DMSO concentration of 0.1%. For each molecule a five-point concentration series (0.5 µM, 1 µM, 2,5 µM, 5 µM and 10 µM) was set up. SPR experiments and data elaboration were carried out as reported elsewhere.

[1] = test system: NIH/3T3 mouse embryonic fibroblast cells; assay: XTT cytotoxicity assay on NIH/3T3 cells; details: for cell viability compared with Rosiglitazone: especially at 316 and 1000 μM
Procedure: XTT is reduced to soluble formazan by this enzyme and formazan is quantified and directly proportional to the number of viable cells. […] NIH/3T3 cells were seeded at 1 × 10^4 cells into each well of 96-well plates. […] The XTT assay (Xenometrix, Allschwil, Switzerland) was performed according to the manufacturer’s instructions, after 24 h incubation with the compounds. The absorbance was determined after 2 h incubation at 480 nm with a reference wavelength of 680 nm using a microplate reader (BioTek, USA). […] The stock solutions of the compounds were prepared in DMSO and further dilutions were made with fresh culture medium. The final DMSO concentration was under 0.1%. Rosiglitazone and Pioglitazone were used as positive controls. All data were obtained from 3 independent experiments in quadruplicates.

[2] = test system: STZ-NA-induced diabetic rats; assay: Antidiabetic activity in STZ-NA-induced type 2 diabetic rats; details: for HbA1c / blood glucose levels / HDL-C / Hb levels / TC, TG, VLDL-C and LDL-C: 15 days; for blood glucose levels: vs diabetic control rats; for HDL-C / Hb levels / TC, TG, VLDL-C and LDL-C: vs disease control (STZ + NA)
Procedure: The test dose was fixed based on the predicted LD50 value. […] Diabetic rats were orally treated with the test compounds at a dose of 36 mg/kg body weight for a period of 15 days. Fasting blood glucose of control, diabetic-untreated and diabetic-treated rats were tested on Days 1, 3, 7 and 15 of the treatment period (Fig. 6A).
Male Wistar strain rats weighing about 160–200 g were used for animal studies. […] Rats were provided with rodent diet and water ad libitum. […] The animals were allowed to drink 5% glucose solution overnight to prevent STZ-NA-induced hypoglycemia[82],[83]. The rats were considered as diabetic if their blood glucose levels were above 250 mg/dL on the 3rd day after STZ-NA injection. The rats were divided into four groups of six animals in each group. Control animals received normal saline (Group I). Diabetic rats received STZ-NA injection (Group II). […] The blood glucose level of each group was checked at 1, 3, 7 and 15 Day by withdrawing blood from tail vein of the animal using glucose meter (ACCu-Chek active, Roche, Diagnostics USA).
After pharmacological screening for antidiabetic activity, the animals were subjected to overnight fasting and blood was collected from retro-orbital region under light anaesthesia for performing various biochemical experiments. All the biochemical experiments were performed using commercially available kits. Total Hb was estimated by cyanomethaemoglobin method, while HbA1c was estimated from whole blood using commercially available kits following the manufacturer guidelines (ERBA Diagnostics Inc, Accurex Biomedical Pvt. Ltd., Coral clinical systems, India). TG concentration was determined by GPO-POD enzymatic-colorimetric method. TC level was measured by the end point, CHOD-POD colorimetric methods. HDL-C was assayed by the method reported earlier. VLDL-C and LDL-C in plasma were calculated by the Friedewald formula: VLDL-C = TG/5; LDL-C = TC-(HDL-C + VLDL-C)[88]. Levels of serum urea, uric acid, and creatinine were measured using commercially available kits[89].
Rats were sacrificed under light anesthesia using diethylether at the end of the pharmacological and biochemical studies. […] Then, the tissue was sliced out into sections of 5 µm thickness by a rotator microtome and stained with hematoxylin-eosin. Obtained sections were examined by a Leica DME microscope, and representative photomicrographs were taken by a 7.1 megapixel Canon Power Shot S70 digital camera.

[3] = Human liver microsomal stability; format: in vitro ADME; details: 37.5 °C, LM conc 0.4 mg/mL; for half-life: read-out: T1/2,int
Procedure: The oral bioavailability of compounds in terms of Caco-2 and MDCK-II permeability and the P-glycoprotein (P-gp) efflux ratio were assessed. The in vitro intrinsic half-life (T1/2,int) and the apparent intrinsic clearance (CLint,app) of compounds were also measured after incubation with human liver microsomes at 37.5 °C[65]. […] Quantification was done by LC-MS/MS. P-gp substrate activity was assessed by the efflux ratio (the ratio of Papp in the B-to-A direction over that in the A-to-B direction). […] P-gp is an ATP-dependent transporter on the apical plasma membrane of enterocytes that functions to limit the entry of drugs into the cell.
Highly cleared compounds in vitro are likely to be rapidly cleared in vivo resulting in a short duration of action.

[4] = 36 mg/kg, light microscopy, hematoxylin-eosin

SMILES	Kd (PPARγ) [µM]	IC50 ([1]; NIH/3T3 cells, XTT, 24 h incubation) [µM]	HbA1c ([2]; 36 mg/kg oral)	blood glucose levels ([2]; 36 mg/kg oral)	HDL-C ([2]; 36 mg/kg oral)	Hb levels ([2]; 36 mg/kg oral)	TC, TG, VLDL-C and LDL-C ([2]; 36 mg/kg oral)	histological changes of pancreas (islets, β-cells) [2, 4]	liver histopathology [2, 4]	CLint,app ([3]; human liver microsomes) [µL/min/mg]	T1/2,int ([3]; human liver microsomes) [min]	IC50 ([1]; Mus musculus, NIH3T3, 24 h) [µM]	cell viability compared with Rosiglitazone ([1]; NIH/3T3 cells)	half-life ([3]; human liver microsomes) [min]	blood glucose lowering activity compared with standard ([2]; 36 mg/kg oral, data for 15th Day)	microsomal CLint ([3]; human, liver microsomes, read-out: CLint,app) [µL/min/mg]
CCCCNC(=O)CN1C(=O)S/C(=C\c2ccccc2)C1=O [1a]	38.3 ± 1.8	> 1000	significantly prevented the increase	significantly reduced	increase	significant increase	significant decrease	restored to near normal	no hepatic abnormalities	169.81	10.20					
CCN(CC)C(=O)CN1C(=O)S/C(=C\c2ccccc2)C1=O [1i]	35.7 ± 2.6		significantly prevented the increase	significantly reduced	increase	significant increase	significant decrease	restored to near normal				> 1000	significantly higher viability than Rosiglitazone	92.5		
CCCCNC(=O)CN1C(=O)S/C(=C\c2ccc(Cl)cc2)C1=O [3a]	32 ± 1.5		significantly prevented the increase	significantly reduced	increase	significant increase	significant decrease	restored to near normal				966 ± 10	significantly higher viability than Rosiglitazone	53.3	equivalent to the standard drug Pioglitazone	32.5

From PMC5663708, “Novel Benzylidene Thiazolidinedione Derivatives as Partial PPARγ Agonists and their Antidiabetic Effects on Type 2 Diabetes” (Scientific Reports, 2017)
